This is an account of results in ChEMBL document CHEMBL1145206, “Design, synthesis and structure-activity relationships of novel taxane-based multidrug resistance reversal agents” (2005).

Each structure is given as a SMILES string.

The test system of the first assay is MCF7R. The assay is described as follows: MDR-reversal activity evaluated against the resistant human breast tumor cell line MCF7-R. The class given is functional. Details: concentration or dose not given beside the values.
Consider `CC(=O)O[C@H]1C(=O)[C@]2(C)[C@@H](OC(=O)/C=C/c3ccc(C(=O)c4ccccc4)cc3)C[C@H]3OC[C@@]3(OC(C)=O)[C@H]2[C@H](OC(=O)c2ccccc2)[C@]2(O)C[C@H](OC(C)=O)C(C)=C1C2(C)C`, for which the Reduction is 99.7%.
Same read-out and setting: the same measure for `CC(=O)O[C@@]12CO[C@@H]1C[C@H](O)[C@@]1(C)C(=O)[C@H](OC(=O)/C=C/c3ccc(C(=O)c4ccccc4)cc3)C3=C(C)[C@@H](O)C[C@@](O)([C@@H](OC(=O)c4ccccc4)[C@H]21)C3(C)C`: 95%; for `CC(=O)O[C@H]1C(=O)[C@]2(C)[C@@H](OC(=O)/C=C/c3ccc4ccccc4c3)C[C@H]3OC[C@@]3(OC(C)=O)[C@H]2[C@H](OC(=O)c2ccccc2)[C@]2(O)C[C@H](OC(C)=O)C(C)=C1C2(C)C`: 99.3%; for `CC(=O)O[C@H]1C(=O)[C@]2(C)[C@@H](OC(=O)c3ccc4ccccc4c3)C[C@H]3OC[C@@]3(OC(C)=O)[C@H]2[C@H](OC(=O)c2ccccc2)[C@]2(O)C[C@H](O)C(C)=C1C2(C)C`: 97.5%.
For `CC(=O)O[C@@]12CO[C@@H]1C[C@H](OC(=O)/C=C/c1ccc3ccccc3c1)[C@@]1(C)C(=O)[C@H](OC(=O)/C=C/c3ccc4ccccc4c3)C3=C(C)[C@@H](O)C[C@@](O)([C@@H](OC(=O)c4ccccc4)[C@H]21)C3(C)C`, the Reduction worked out at 45%.
On the same count and under the same terms, next, `CC(=O)O[C@H]1C(=O)[C@]2(C)[C@@H](OC(=O)/C=C/c3cccc4ccccc34)C[C@H]3OC[C@@]3(OC(C)=O)[C@H]2[C@H](OC(=O)c2ccccc2)[C@]2(O)C[C@H](O)C(C)=C1C2(C)C`: 96%.
As for `CC(=O)O[C@H]1C(=O)[C@]2(C)[C@@H](OC(=O)CCc3cccc4ccccc34)C[C@H]3OC[C@@]3(OC(C)=O)[C@H]2[C@H](OC(=O)c2ccccc2)[C@]2(O)C[C@H](O)C(C)=C1C2(C)C`, the Reduction was found to be 96%.
On to `CC(=O)O[C@H]1C(=O)[C@]2(C)[C@@H](OC(=O)CCC3CCCC4CCCCC43)C[C@H]3OC[C@@]3(OC(C)=O)[C@H]2[C@H](OC(=O)C2CCCCC2)[C@]2(O)C[C@H](O)C(C)=C1C2(C)C` (some centres not stated), for which the Reduction came out at 81%.
Take `CC(=O)O[C@@]12CO[C@@H]1C[C@H](OC(=O)/C=C/c1ccc3ccccc3c1)[C@@]1(C)C(=O)[C@H](OC(=O)CCc3ccc(C(=O)c4ccccc4)cc3)C3=C(C)[C@@H](O)C[C@@](O)([C@@H](OC(=O)c4ccccc4)[C@H]21)C3(C)C`: the Reduction worked out at 0%.
Regarding `CC(=O)O[C@@]12CO[C@@H]1C[C@H](OC(=O)CCc1ccc(C(=O)c3ccccc3)cc1)[C@@]1(C)C(=O)[C@H](OC(=O)CCc3ccc(C(=O)c4ccccc4)cc3)C3=C(C)[C@@H](O)C[C@@](O)([C@@H](OC(=O)c4ccccc4)[C@H]21)C3(C)C`, the Reduction is listed as 99.7%.
Turning to `CC(=O)O[C@H]1C(=O)[C@]2(C)[C@@H](OC(=O)CNC(=O)c3ccc4ccccc4c3)C[C@H]3OC[C@@]3(OC(C)=O)[C@H]2[C@H](OC(=O)c2ccccc2)[C@]2(O)C[C@H](O)C(C)=C1C2(C)C`, the Reduction is listed as 42%.
As for `CC(=O)O[C@H]1C(=O)[C@]2(C)[C@@H](OC(=O)/C=C/c3ccc(C(=O)c4ccccc4)cc3)C[C@H]3OC[C@@]3(OC(C)=O)[C@H]2[C@H](OC(=O)c2ccccc2)[C@]2(O)C[C@H](O)C(C)=C1C2(C)C`, the Reduction is 99.8%.

Another assay concerns MDA-MB-435. The assay is described as follows: MDR-reversal activity evaluated against the resistant human breast tumor cell line MDA-435/LCC6-MDR. The format is functional. The arrangement: concentration or dose not given beside the values.
Take `CC(=O)O[C@H]1C(=O)[C@]2(C)[C@@H](OC(=O)/C=C/c3ccc(C(=O)c4ccccc4)cc3)C[C@H]3OC[C@@]3(OC(C)=O)[C@H]2[C@H](OC(=O)c2ccccc2)[C@]2(O)C[C@H](OC(C)=O)C(C)=C1C2(C)C`: the Reduction worked out at 92%.
Take `CC(=O)O[C@H]1C(=O)[C@]2(C)[C@@H](OC(=O)/C=C/c3ccc(C(=O)c4ccccc4)cc3)C[C@H]3OC[C@@]3(OC(C)=O)[C@H]2[C@H](OC(=O)C2CCCCC2)[C@]2(O)C[C@H](OC(C)=O)C(C)=C1C2(C)C`: the Reduction turned out to be 86%.
As for `CC(=O)O[C@H]1C(=O)[C@]2(C)[C@@H](OC(=O)/C=C/c3cccc4ccccc34)C[C@H]3OC[C@@]3(OC(C)=O)[C@H]2[C@H](OC(=O)c2ccccc2)[C@]2(O)C[C@H](O)C(C)=C1C2(C)C`, the Reduction came to 50%.
On the same count and under the same terms, the same measure for `COc1cccc(C(=O)O[C@H]2[C@@H]3[C@]4(OC(C)=O)CO[C@@H]4C[C@H](OC(=O)/C=C/c4ccc(C(=O)c5ccccc5)cc4)[C@@]3(C)C(=O)[C@H](OC(C)=O)C3=C(C)[C@@H](OC(C)=O)C[C@]2(O)C3(C)C)c1`: 95%; for `CC(=O)O[C@H]1C(=O)[C@]2(C)[C@@H](OC(C)=O)C[C@H]3OC[C@@]3(OC(C)=O)[C@H]2[C@H](OC(=O)CCc2ccc3ccccc3c2)[C@]2(O)C[C@H](OC(C)=O)C(C)=C1C2(C)C`: 24%.
